Test results: patent US20110003865A1, “NOVEL 2-DIETHYLAMINO-3-AMIDO-6-AMINO-PYRIDINE DERIVATIVES USEFUL AS POTASSIUM CHANNEL ACTIVATORS” (priority 2007, published 2011)

molecular target: T1, human Kv72+3 channels (Homo sapiens, UniProt O43525+O43526); test: Patch-clamp, HEK293 cells stably expressing human Kv7.2+3 channels; format: cell-based; conditions: conc. 0.03 μM, −30 mV, 20 ms; current relative to baseline current defined as 100%
T1 construct: expressed in transfected cells; host or cells: HEK293
T1 sequence (O43526 whole entry): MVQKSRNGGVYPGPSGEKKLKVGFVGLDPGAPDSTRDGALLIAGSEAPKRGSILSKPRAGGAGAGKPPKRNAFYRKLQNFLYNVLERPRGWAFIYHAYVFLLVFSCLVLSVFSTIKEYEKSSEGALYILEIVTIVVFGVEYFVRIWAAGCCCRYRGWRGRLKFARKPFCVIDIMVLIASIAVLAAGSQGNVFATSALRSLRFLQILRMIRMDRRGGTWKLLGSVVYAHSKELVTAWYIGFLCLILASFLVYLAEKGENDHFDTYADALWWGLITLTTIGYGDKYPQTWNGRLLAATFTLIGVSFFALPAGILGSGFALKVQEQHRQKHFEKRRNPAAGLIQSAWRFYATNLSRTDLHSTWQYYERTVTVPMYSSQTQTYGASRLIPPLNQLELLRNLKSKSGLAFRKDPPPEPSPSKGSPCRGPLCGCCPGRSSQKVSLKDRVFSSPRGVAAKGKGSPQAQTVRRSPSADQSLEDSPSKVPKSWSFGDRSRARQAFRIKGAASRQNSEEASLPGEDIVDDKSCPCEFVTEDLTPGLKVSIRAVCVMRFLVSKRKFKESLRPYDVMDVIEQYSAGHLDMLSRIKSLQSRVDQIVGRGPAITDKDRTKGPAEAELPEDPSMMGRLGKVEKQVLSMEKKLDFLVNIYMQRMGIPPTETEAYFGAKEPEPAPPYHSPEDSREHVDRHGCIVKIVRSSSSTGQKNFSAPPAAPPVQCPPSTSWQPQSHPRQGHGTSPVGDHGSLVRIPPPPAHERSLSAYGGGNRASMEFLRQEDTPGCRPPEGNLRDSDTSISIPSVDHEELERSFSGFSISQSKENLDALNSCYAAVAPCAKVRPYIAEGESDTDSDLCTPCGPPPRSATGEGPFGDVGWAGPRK
T1 sequence (O43525 whole entry): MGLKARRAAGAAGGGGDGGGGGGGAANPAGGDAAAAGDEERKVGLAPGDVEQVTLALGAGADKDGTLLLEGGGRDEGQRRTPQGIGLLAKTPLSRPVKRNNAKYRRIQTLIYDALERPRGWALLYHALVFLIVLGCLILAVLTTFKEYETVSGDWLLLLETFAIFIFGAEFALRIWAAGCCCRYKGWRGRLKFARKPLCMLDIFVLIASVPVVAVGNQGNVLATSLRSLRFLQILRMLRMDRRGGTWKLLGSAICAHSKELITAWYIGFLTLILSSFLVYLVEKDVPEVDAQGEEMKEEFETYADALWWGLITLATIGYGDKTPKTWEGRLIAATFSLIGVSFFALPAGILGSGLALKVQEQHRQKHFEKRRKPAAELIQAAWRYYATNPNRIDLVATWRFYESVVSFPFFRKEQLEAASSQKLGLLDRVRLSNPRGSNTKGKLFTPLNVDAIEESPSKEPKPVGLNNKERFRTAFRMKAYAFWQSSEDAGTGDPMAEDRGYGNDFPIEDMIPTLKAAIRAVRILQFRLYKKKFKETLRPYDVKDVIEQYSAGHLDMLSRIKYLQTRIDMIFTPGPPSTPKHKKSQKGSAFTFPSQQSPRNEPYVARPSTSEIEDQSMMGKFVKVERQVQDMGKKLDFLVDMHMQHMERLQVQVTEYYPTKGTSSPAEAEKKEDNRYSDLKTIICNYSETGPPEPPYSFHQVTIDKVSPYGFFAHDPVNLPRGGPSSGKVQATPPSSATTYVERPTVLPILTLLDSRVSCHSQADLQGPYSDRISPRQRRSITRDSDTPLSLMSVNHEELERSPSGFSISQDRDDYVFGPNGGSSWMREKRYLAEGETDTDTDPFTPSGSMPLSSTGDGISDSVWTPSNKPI
Excerpt: The effect obtained by these channel activators is described as a percentage increase in baseline current at a given concentration. The baseline current is defined as 100%, and an increase in current is expressed relative to this, i.e. an increase from 1 nA to 1.2 nA is reported as 120%.

Point of comparison: `CCN(CC)c1nc(NCc2ccc(F)cc2)ccc1NC(=O)[C@@H]1C[C@H]1c1ccccc1` (relative stereo) [Compound 7, trans-2-Phenyl-cyclopropanecarboxylic acid [2-diethylamino-6-(4-fluoro-benzylamino)-pyridin-3-yl]-amide], “IK (%)” value 520%. Against it:
- CCN(CC)c1nc(NCc2ccc(F)cc2)ccc1NC(=O)Cc1cc(F)cc(F)c1 [Compound 1, N-[2-Diethylamino-6-(4-fluoro-benzylamino)-pyridin-3-yl]-2-(3,5-difluoro-phenyl)-acetamide] — higher, 1247%
- CCN(CC)c1nc(NCc2ccc(F)cc2)ccc1NC(=O)Cc1ccc(C(F)(F)F)c(F)c1 [Compound 3, N-[2-Diethylamino-6-(4-fluoro-benzylamino)-pyridin-3-yl]-2-(3-fluoro-4-trifluoromethyl-phenyl)-acetamide] — lower, 282%
- CCN(CC)c1nc(NCc2ccc(F)cc2)ccc1NC(=O)[C@@H](C)c1ccccc1 [Compound 4, (S)—N-[2-Diethylamino-6-(4-fluoro-benzylamino)-pyridin-3-yl]-2-phenyl-propionamide] — lower, 334%
- CCN(CC)c1nc(NCc2ccc(F)cc2)ccc1NC(=O)CC(C)(C)C [Compound 9, N-[2-Diethylamino-6-(4-fluoro-benzylamino)-pyridin-3-yl]-3,3-dimethyl-butyramide] — higher, 550%
